What was measured:
Assay in all cases: Test D pre-/postemergence plant response
Type in all cases: in vivo
[1] = system: Italian ryegrass (Lolium multiflorum)
How it was run: (§1)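 Ratings come from greenhouse-grown weeds in loam and sand treated pre- or postemergence (postemergence height 2 to 18 cm). Evaluation after 14–21 days, visual, relative to controls, on a 0–100 control scale.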

[2] = system: Surinam grass (Brachiaria decumbens)
How it was run: as §1

[3] = system: bluegrass (annual bluegrass, Poa annua)
How it was run: as §1

[4] = system: chickweed (common chickweed, Stellaria media); conditions: Postemergence
How it was run: as §1

[5] = system: field bindweed (Convolvulus arvensis)
How it was run: as §1

[6] = system: goosegrass (Eleusine indica)
How it was run: as §1

[7] = system: groundsel (common groundsel, Senecio vulgaris); conditions: Postemergence
How it was run: as §1

[8] = system: johnsongrass (Sorghum halepense)
How it was run: as §1

kochia (Kochia scoparia) = system: kochia (Kochia scoparia)
How it was run: as §1

[9] = system: large crabgrass (Digitaria sanguinalis)
How it was run: as §1

[10] = system: morningglory (pitted morningglory, Ipomoea lacunosa)
How it was run: as §1

[11] = system: naked crabgrass (Digitaria nuda)
How it was run: as §1

[12] = system: nutsedge (purple nutsedge, Cyperus rotundus)
How it was run: as §1

[13] = system: purslane (common purslane, Portulaca oleracea)
How it was run: as §1

[14] = system: spanishneedles (Bidens bipinnata)
How it was run: as §1

[15] = Postemergence, 16 g ai/ha, scale 0 to 100
[16] = Postemergence, 31 g ai/ha, scale 0 to 100
[17] = Postemergence, 125 g ai/ha, scale 0 to 100 (0 no effect, 100 complete control)
[18] = Postemergence, 62 g ai/ha, scale 0 to 100 (0 no effect, 100 complete control)
[19] = Preemergence, 16 g ai/ha, scale 0 to 100, 0 no effect, 100 complete control
[20] = Preemergence, 31 g ai/ha, scale 0 to 100 (0 no effect, 100 complete control)
[21] = Preemergence, 125 g ai/ha, scale 0 to 100
[22] = Preemergence, 62 g ai/ha, scale 0 to 100
[23] = 125 g ai/ha, scale 0 to 100 (0 no effect, 100 complete control)
[24] = 62 g ai/ha, scale 0 to 100 (0 no effect, 100 complete control)

O=C1CCCC(O)=C1C(=O)c1cnc(C2CC2)n(-c2ccccc2)c1=O [Compound 87]
Plant response rating, Ryegrass, Italian [1, 15]: 0
Plant response rating, Ryegrass, Italian [1, 16]: 0
Plant response rating, Ryegrass, Italian [1, 17]: 5
Plant response rating, Ryegrass, Italian [1, 18]: 0
Plant response rating, Ryegrass, Italian [1, 19]: 0
Plant response rating, Ryegrass, Italian [1, 20]: 0
Plant response rating, Ryegrass, Italian [1, 21]: 30
Plant response rating, Surinam Grass [2, 15]: 30
Plant response rating, Surinam Grass [2, 16]: 40
Plant response rating, Surinam Grass [2, 17]: 40
Plant response rating, Surinam Grass [2, 18]: 40
Plant response rating, Surinam Grass [2, 19]: 0
Plant response rating, Surinam Grass [2, 20]: 50
Plant response rating, Surinam Grass [2, 21]: 100
Plant response rating, Bluegrass [3, 15]: 0
Plant response rating, Bluegrass ([3]; Postemergence, 31 g ai/ha, scale 0 to 100 (0 no effect, 100 complete control)): 0
Plant response rating, Bluegrass [3, 17]: 0
Plant response rating, Bluegrass [3, 18]: 0
Plant response rating, Bluegrass [3, 19]: 20
Plant response rating, Bluegrass [3, 20]: 20
Plant response rating, Bluegrass [3, 22]: 25
Plant response rating, Bluegrass [3, 21]: 35
Plant response rating, Chickweed ([4]; 16 g ai/ha, scale 0 to 100): 75
Plant response rating, Chickweed ([4]; 31 g ai/ha, scale 0 to 100): 75
Plant response rating, Chickweed [4, 23]: 100
Plant response rating, Chickweed [4, 24]: 75
Plant response rating, Field Bindweed [5, 15]: 0
Plant response rating, Field Bindweed [5, 16]: 15
Plant response rating, Field Bindweed [5, 17]: 40
Plant response rating, Field Bindweed [5, 18]: 25
Plant response rating, Field Bindweed [5, 19]: 0
Plant response rating, Field Bindweed [5, 20]: 0
Plant response rating, Field Bindweed [5, 22]: 40
Plant response rating, Field Bindweed [5, 21]: 70
Plant response rating, Goosegrass [6, 15]: 30
Plant response rating, Goosegrass [6, 16]: 35
Plant response rating, Goosegrass [6, 17]: 65
Plant response rating, Goosegrass [6, 18]: 65
Plant response rating, Goosegrass [6, 19]: 35
Plant response rating, Goosegrass [6, 20]: 35
Plant response rating, Goosegrass [6, 22]: 95
Plant response rating, Goosegrass [6, 21]: 100
Plant response rating, Groundsel ([7]; 16 g ai/ha, scale 0 to 100): 98
Plant response rating, Groundsel ([7]; 31 g ai/ha, scale 0 to 100): 98
Plant response rating, Groundsel [7, 23]: 100
Plant response rating, Groundsel [7, 24]: 100
Plant response rating, Johnsongrass [8, 15]: 20
Plant response rating, Johnsongrass [8, 16]: 30
Plant response rating, Johnsongrass [8, 17]: 60
Plant response rating, Johnsongrass [8, 18]: 40
Plant response rating, Johnsongrass [8, 19]: 0
Plant response rating, Johnsongrass [8, 20]: 5
Plant response rating, Johnsongrass [8, 22]: 20
Plant response rating, Johnsongrass [8, 21]: 70
Plant response rating, Kochia (kochia (Kochia scoparia); [15]): 25
Plant response rating, Kochia (kochia (Kochia scoparia); [16]): 35
Plant response rating, Kochia (kochia (Kochia scoparia); [17]): 60
Plant response rating, Kochia (kochia (Kochia scoparia); [18]): 35
Plant response rating, Kochia (kochia (Kochia scoparia); [19]): 65
Plant response rating, Kochia (kochia (Kochia scoparia); [20]): 98
Plant response rating, Kochia (kochia (Kochia scoparia); [22]): 100
Plant response rating, Kochia (kochia (Kochia scoparia); [21]): 100
Plant response rating, Crabgrass, Large [9, 15]: 40
Plant response rating, Crabgrass, Large [9, 16]: 65
Plant response rating, Crabgrass, Large [9, 17]: 75
Plant response rating, Crabgrass, Large [9, 18]: 70
Plant response rating, Crabgrass, Large [9, 19]: 50
Plant response rating, Crabgrass, Large [9, 20]: 75
Plant response rating, Crabgrass, Large [9, 22]: 95
Plant response rating, Crabgrass, Large [9, 21]: 100
Plant response rating, Morningglory [10, 15]: 40
Plant response rating, Morningglory [10, 16]: 40
Plant response rating, Morningglory [10, 17]: 50
Plant response rating, Morningglory [10, 18]: 40
Plant response rating, Morningglory [10, 19]: 10
Plant response rating, Morningglory [10, 22]: 80
Plant response rating, Morningglory [10, 21]: 95
Plant response rating, Crabgrass, Naked [11, 15]: 50
Plant response rating, Crabgrass, Naked [11, 16]: 60
Plant response rating, Crabgrass, Naked [11, 17]: 75
Plant response rating, Crabgrass, Naked [11, 18]: 70
Plant response rating, Crabgrass, Naked [11, 20]: 80
Plant response rating, Crabgrass, Naked [11, 22]: 100
Plant response rating, Crabgrass, Naked [11, 21]: 100
Plant response rating, Nutsedge, Purple [12, 15]: 0
Plant response rating, Nutsedge, Purple [12, 16]: 10
Plant response rating, Nutsedge, Purple [12, 17]: 50
Plant response rating, Nutsedge, Purple [12, 18]: 20
Plant response rating, Nutsedge, Purple [12, 19]: 0
Plant response rating, Nutsedge, Purple [12, 20]: 5
Plant response rating, Nutsedge, Purple [12, 22]: 50
Plant response rating, Nutsedge, Purple [12, 21]: 75
Plant response rating, Purslane [13, 15]: 10
Plant response rating, Purslane [13, 16]: 25
Plant response rating, Purslane [13, 17]: 35
Plant response rating, Purslane [13, 18]: 35
Plant response rating, Purslane [13, 19]: 70
Plant response rating, Purslane [13, 20]: 100
Plant response rating, Purslane [13, 22]: 100
Plant response rating, Purslane [13, 21]: 100
Plant response rating, Spanishneedles [14, 15]: 60
Plant response rating, Spanishneedles [14, 16]: 60
Plant response rating, Spanishneedles [14, 17]: 70
Plant response rating, Spanishneedles [14, 18]: 60
Plant response rating, Spanishneedles [14, 19]: 0
Plant response rating, Spanishneedles [14, 20]: 65
Plant response rating, Spanishneedles [14, 21]: 98

— US8952024B2, “Herbicidal pyrimidone derivatives” (E I du Pont de Nemours and Company, priority 2009, dated 2015)
